Measurements taken from DBAASP.
In brackets after ≈: the same amount, converted by molar mass.

Key:
Assay in all cases: ≥ marks a high value that may be exact or a test limit, other limits are often not marked, values filed in µg/mL are converted to µM
[1] = system: Nocardia asteroides 201118
[2] = system: Staphylococcus aureus ATCC 25923
[3] = system: Acinetobacter baumannii ATCC 19606
[4] = system: Escherichia coli ATCC 25922
[5] = system: Escherichia coli ATCC 8739
[6] = system: Klebsiella pneumoniae ATCC 13883
[7] = system: Pseudomonas aeruginosa ATCC 47085
[8] = system: Staphylococcus aureus ATCC 29213
[9] = system: Candida albicans ATCC 90028
[10] = system: Enterobacter cloacae HNTCC 53001
[11] = system: Enterococcus faecalis ATCC 29212
[12] = system: Klebsiella pneumoniae KK3 9904
[13] = system: Proteus mirabilis ATCC 25933
[14] = system: Pseudomonas aeruginosa ATCC 27853
[15] = system: Staphylococcus aureus NCTC 8325
[16] = system: Staphylococcus epidermidis RP62A
Bacillus subtilis = system: Bacillus subtilis
Escherichia coli HB101 = system: Escherichia coli HB101
Pseudomonas aeruginosa = system: Pseudomonas aeruginosa
Salmonella typhimurium = system: Salmonella typhimurium
Staphylococcus aureus = system: Staphylococcus aureus
[17] = system: Micrococcus luteus ATCC 4698
[18] = system: Candida albicans ATCC 64550
[19] = system: Pseudomonas aeruginosa ATCC 9027
[20] = system: Staphylococcus aureus ATCC 29737
[21] = system: Staphylococcus aureus USA 100
[22] = system: Staphylococcus aureus USA 300
[23] = system: Staphylococcus epidermidis ATCC 12228
[24] = system: Staphylococcus aureus ATCC 33591
[25] = system: Staphylococcus epidermidis ATCC 35984
Escherichia coli W160-37 = system: Escherichia coli W160-37
[26] = system: Corynebacterium glutamicum ATCC 13032
[27] = system: Staphylococcus aureus ATCC 9144

Which results are given for CC[C@H](C)[C@H](NC(=O)[C@H](C)NC(=O)CNC(=O)[C@@H](NC(=O)[C@H](CC(C)C)NC(=O)[C@H](CC(C)C)NC(=O)[C@@H]1CCCN1C(=O)[C@H](CC(C)C)NC(=O)[C@@H](N)Cc1ccccc1)C(C)C)C(=O)N[C@@H](CO)C(=O)N[C@@H](CO)C(=O)N[C@H](C(=O)N[C@@H](CC(C)C)C(=O)N1CCC[C@H]1C(=O)N[C@@H](CCCCN)C(=O)N[C@H](C(=O)N[C@@H](Cc1ccccc1)C(N)=O)[C@@H](C)CC)[C@@H](C)CC [FLPLLVGAISSILPKIF]?
MIC [1]: 6.3 µM (≈ 11.5 µg/mL); MIC [2]: 12.5 µM (≈ 22.8 µg/mL)

How did the MIC [3] turn out when CC[C@H](C)[C@H](NC(=O)CN)C(=O)NCC(=O)N[C@@H](C)C(=O)N[C@H](C(=O)N[C@@H](CC(C)C)C(=O)N[C@@H](CCCCN)C(=O)N[C@H](C(=O)N[C@@H](CC(C)C)C(=O)N[C@H](C(=O)N[C@H](C(=O)NCC(=O)N[C@@H](CC(C)C)C(=O)N1CCC[C@H]1C(=O)N[C@@H](C)C(=O)N[C@@H](CC(C)C)C(=O)N[C@H](C(=O)N[C@@H](CO)C(=O)N[C@@H](Cc1c[nH]c2ccccc12)C(=O)N[C@H](C(=O)N[C@@H](CCCCN)C(=O)N[C@@H](CCCN=C(N)N)C(=O)N[C@@H](CCCCN)C(=O)N[C@@H](CCCN=C(N)N)C(=O)N[C@@H](CCC(N)=O)C(=O)N[C@@H](CCC(N)=O)C(=O)O)[C@@H](C)CC)[C@@H](C)CC)[C@@H](C)O)[C@@H](C)O)C(C)C)C(C)C [GIGAVLKVLTTGLPALISWIKRKRQQ] was run?
The MIC was 4.1 µM (≈ 11.7 µg/mL).

And the MIC [4]?
Its MIC is 6.3 µM (≈ 17.9 µg/mL).

What about the MIC [5] of the same compound?
Its MIC is 4.52 µM (≈ 12.9 µg/mL).

What about the MIC [6] of the same compound?
Its MIC is 3.5 µM (≈ 9.97 µg/mL).

What about the MIC [7] of the same compound?
The MIC was 4.9 µM (≈ 14 µg/mL).

And the MIC [8]?
The MIC was 3.83 µM (≈ 10.9 µg/mL).

What does the source list for CC[C@H](C)[C@H](NC(=O)CNC(=O)[C@H](CCCCN)NC(=O)[C@H](Cc1ccccc1)NC(=O)[C@@H](NC(=O)[C@H](CCCCN)NC(=O)[C@H](CCCCN)NC(=O)[C@H](CC(C)C)NC(=O)[C@H](C)NC(=O)[C@H](CCCCN)NC(=O)[C@H](CC(C)C)NC(=O)CN)C(C)C)C(=O)N[C@@H](Cc1cnc[nH]1)C(=O)N[C@@H](CCCCN)C(=O)N[C@@H](C)C(=O)N[C@H](C(=O)N[C@@H](CCCCN)C(=O)N[C@@H](CC(C)C)C(=O)N[C@H](C(=O)N[C@@H](CC(N)=O)C(=O)N[C@@H](CC(N)=O)C(=O)N[C@@H](Cc1cnc[nH]1)C(=O)N[C@H](C(=O)N[C@@H](CCC(N)=O)C(=O)O)C(C)C)[C@@H](C)CC)[C@@H](C)CC [GLKALKKVFKGIHKAIKLINNHVQ]?
MIC [9]: ≥ 80 µM; MIC [10]: 5 µM (≈ 13.5 µg/mL); MIC [11]: > 80 µM; MIC [4]: 5 µM (≈ 13.5 µg/mL); MIC [12]: 5 µM (≈ 13.5 µg/mL); MIC [13]: ≥ 80 µM; MIC [14]: 5 µM (≈ 13.5 µg/mL); MIC [15]: 20 µM (≈ 54 µg/mL); MIC [16]: 10 µM (≈ 27 µg/mL)

Which MIC (Bacillus subtilis) does the source give for CC[C@H](C)[C@H](NC(=O)[C@@H](NC(=O)[C@@H]1CCCN1C(=O)[C@@H](NC(=O)[C@@H]1CCCN1C(=O)[C@H](CCCCN)NC(=O)[C@H](CCCCN)NC(=O)[C@H](CO)NC(=O)CN)C(C)C)[C@@H](C)CC)C(=O)N[C@@H](Cc1ccc(O)cc1)C(=O)N[C@H]1CSSC[C@@H](C(=O)N[C@@H](CCC(N)=O)C(=O)N[C@@H](CCCN=C(N)N)C(=O)N[C@@H](CCSC)C(=O)O)NC(=O)[C@H](CCCCN)NC(=O)[C@H]([C@@H](C)O)NC(=O)[C@H](CCCN=C(N)N)NC(=O)[C@H](CCCN=C(N)N)NC(=O)[C@H](CC(N)=O)NC1=O [GSKKPVPIIYCNRRTKCQRM] here?
The MIC was 5.2 µM (≈ 12.4 µg/mL).

And the MIC (Escherichia coli HB101)?
The MIC was 2.6 µM (≈ 6.18 µg/mL).

What about the MIC (Pseudomonas aeruginosa) of the same compound?
Its MIC is 5.2 µM (≈ 12.4 µg/mL).

What about the MIC (Salmonella typhimurium) of the same compound?
The MIC was 1.3 µM (≈ 3.09 µg/mL).

And the MIC (Staphylococcus aureus)?
Its MIC is 20.8 µM (≈ 49.4 µg/mL).

For CC[C@H](C)[C@H](N)C(=O)N[C@@H](C)C(=O)N[C@@H](CCC(N)=O)C(=O)N[C@@H](CCC(N)=O)C(=O)N[C@@H](C)C(=O)N[C@@H](C)C(=O)N[C@@H](CC(N)=O)C(=O)N[C@H](C(=O)N[C@@H](C)C(=O)N[C@@H](C)C(=O)N[C@H](C(=O)N[C@@H](C)C(=O)N[C@@H](CCCN=C(N)N)C(=O)NCC(=O)O)[C@@H](C)O)C(C)C [IAQQAANVAATARG], which MIC [17] is on record?
The MIC was 8.84 µM (≈ 11.9 µg/mL).

Which MIC [18] does the source give for CC[C@H](C)[C@H](N)C(=O)N[C@@H](CCCCN)C(=O)N[C@H](C(=O)N[C@@H](CCCCN)C(=O)N[C@H](C(=O)N[C@@H](CCCCN)C(=O)N[C@H](C(=O)N[C@@H](CCCCN)C(N)=O)[C@@H](C)CC)[C@@H](C)CC)[C@@H](C)CC [IKIKIKIK] here?
Its MIC is 3.13 µM (≈ 3.07 µg/mL).

What about the MIC [9] of the same compound?
The MIC was 1.56 µM (≈ 1.53 µg/mL).

And the MIC [4]?
Its MIC is 31.8 µM (≈ 31.3 µg/mL).

And the MIC [19]?
Its MIC is 6.25 µM (≈ 6.14 µg/mL).

And the MIC [20]?
The MIC was at least 127 µM.

What about the MIC [21] of the same compound?
Its MIC is 25 µM (≈ 24.6 µg/mL).

What about the MIC [22] of the same compound?
The MIC was 25 µM (≈ 24.6 µg/mL).

What about the MIC [23] of the same compound?
Its MIC is 2.03 µM (≈ 2 µg/mL).

Which results are given for CC(C)[C@H](NC(=O)[C@H](Cc1ccccc1)NC(=O)[C@H](C)NC(=O)[C@H](CCCCN)NC(=O)CNC(=O)[C@H](Cc1ccccc1)NC(=O)[C@H](CCCCN)NC(=O)[C@H](CCCCN)NC(=O)[C@H](C)NC(=O)[C@H](CCCCN)NC(=O)[C@@H](N)CCCCN)C(=O)N[C@@H](CCCCN)C(N)=O [KKAKKFGKAFVK]?
MIC [14]: > 371 µM; MIC [2]: > 371 µM; MIC [24]: ≥ 371 µM; MIC [25]: ≥ 371 µM

CC(C)C[C@H](NC(=O)[C@H](CCCCN)NC(=O)[C@H](CCCCN)NC(=O)[C@H](Cc1ccccc1)NC(=O)[C@H](Cc1ccccc1)NC(=O)[C@H](CCCCN)NC(=O)[C@H](CCCCN)NC(=O)[C@H](C)NC(=O)[C@H](CCCN=C(N)N)NC(=O)[C@@H](N)CCCCN)C(=O)N[C@@H](CCCCN)C(N)=O [KRAKKFFKKLK] was tested. Which MIC [18] did it give?
The MIC was at least 100 µM.

Which MIC [17] does the source give for NCCCC[C@H](NC(=O)[C@H](CO)NC(=O)[C@H](Cc1cnc[nH]1)NC(=O)[C@H](CCCN=C(N)N)NC(=O)[C@H](Cc1cnc[nH]1)NC(=O)[C@H](CO)NC(=O)[C@H](CCC(N)=O)NC(=O)[C@H](Cc1ccc(O)cc1)NC(=O)[C@@H](N)CC(N)=O)C(=O)N[C@@H](CO)C(=O)O [NYQSHRHSKS] here?
Its MIC is at least 75 µM.

CC[C@H](C)[C@H](NC(=O)[C@H](Cc1c[nH]c2ccccc12)NC(=O)[C@H](CCCCN)NC(=O)[C@H](CC(C)C)NC(=O)[C@H](Cc1ccccc1)NC(=O)[C@@H](NC(=O)[C@H](CCCCN)NC(=O)[C@H](CC(C)C)NC(=O)[C@H](CC(C)C)NC(=O)[C@H](CCCCN)NC(=O)[C@@H]1CCCN1)[C@@H](C)O)C(=O)NCC(=O)O [PKLLKTFLKWIG] was tested. Which MIC (Escherichia coli W160-37) did it give?
The MIC was 25 µM (≈ 36.1 µg/mL).

What about the MIC (Staphylococcus aureus) of the same compound?
The MIC was 14 µM (≈ 20.2 µg/mL).

Which results are given for CC[C@H](C)[C@H](NC(=O)[C@@H]1CCCN1C(=O)[C@H](CCCCN)NC(=O)[C@@H]1CCCN1C(=O)[C@H](CCCN=C(N)N)NC(=O)CNC(=O)[C@@H]1CCCN1C(=O)[C@H](Cc1ccccc1)NC(=O)[C@@H]1CCCN1C(=O)[C@H](CCCN=C(N)N)NC(=O)[C@@H]1CCCN1C(=O)[C@H](CCCN=C(N)N)NC(=O)CNC(=O)[C@@H]1CCCN1C(=O)[C@H](CO)NC(=O)[C@@H]1CCCN1C(=O)[C@H](Cc1c[nH]c2ccccc12)NC(=O)[C@H](CCCN=C(N)N)NC(=O)[C@@H](N)CO)C(=O)N[C@@H](Cc1ccccc1)C(=O)N[C@@H](CCCN=C(N)N)C(=O)N1CCC[C@H]1C(=O)N[C@@H](CCCN=C(N)N)C(=O)O [SRWPSPGRPRPFPGRPKPIFRPR]?
MIC [26]: 0.8 µM (≈ 2.19 µg/mL); MIC [4]: 6.3 µM (≈ 17.3 µg/mL); MIC (Escherichia coli HB101): 3.1 µM (≈ 8.5 µg/mL); MIC [14]: 12.5 µM (≈ 34.3 µg/mL); MIC [27]: ≥ 100 µM
